This is an account of results in patent publication US20080153873A1, “DIHYDROBENZOFURANYL DERIVATIVES AND METHODS OF THEIR USE” (Wyeth, priority 2006, published 2008).

Where a name gives a salt, the structure may show the parent alone.

For one assay, the target named is T1, human hNET (Homo sapiens, UniProt P23975).
T1 construct: expressed in transfected cells; host or cells: MDCK-Net6 cells (MDCK, stably transfected)
T1 sequence (P23975 whole entry): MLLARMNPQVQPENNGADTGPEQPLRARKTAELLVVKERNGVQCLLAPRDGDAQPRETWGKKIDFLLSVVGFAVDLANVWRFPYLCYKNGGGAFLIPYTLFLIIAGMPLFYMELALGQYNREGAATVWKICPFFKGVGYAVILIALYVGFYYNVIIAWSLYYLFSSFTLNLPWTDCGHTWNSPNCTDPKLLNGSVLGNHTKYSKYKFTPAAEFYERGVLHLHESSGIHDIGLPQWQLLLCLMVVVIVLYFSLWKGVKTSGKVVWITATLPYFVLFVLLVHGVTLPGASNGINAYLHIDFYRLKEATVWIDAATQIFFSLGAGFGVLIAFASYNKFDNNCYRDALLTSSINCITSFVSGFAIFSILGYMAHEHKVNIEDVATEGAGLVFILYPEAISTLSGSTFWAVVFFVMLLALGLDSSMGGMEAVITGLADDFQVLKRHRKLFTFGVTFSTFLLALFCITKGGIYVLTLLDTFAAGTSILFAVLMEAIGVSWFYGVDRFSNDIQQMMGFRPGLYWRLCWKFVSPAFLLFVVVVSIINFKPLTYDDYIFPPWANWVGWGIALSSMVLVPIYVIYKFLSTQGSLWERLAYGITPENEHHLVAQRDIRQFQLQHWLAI
The assay is described as follows: Functional Norepinephrine (NE) Uptake Assay in MDCK-Net6 cells. The class given is cell-based. Conditions: % inhibition of NE uptake @ 6 μM; MDCK-Net6 cells; read-out: hNET IC50 (nM) (% Inhibition). Here is the method: MDCK-Net6 cells, stably transfected with human hNET (Pacholczyk, T., R. D. Blakely, and S. G. Amara, Nature, 1991, 350(6316): p. 350-4) were cultured in growth medium containing high glucose DMEM (Gibco, Cat. No. 11995), 10% FBS (dialyzed, heat-inactivated, US Bio-Technologies, Lot FBD1129HI) and 500 μg/ml G418 (Gibco, Cat. No. 10131). Cells were plated at 300,000 T75 flask and cells were split twice weekly.
On day 1, cells were plated at 3,000 cells/well in growth medium and maintained in a cell incubator (37° C., 5% CO2). On day 2, growth medium was replaced with 200 μl of assay buffer (25 mM HEPES; 120 mM NaCl; 5 mM KCl; 2.5 mM CaCl2; 1.2 mM MgSO4; 2 mg/ml glucose (pH 7.4, 37° C.)) containing 0.2 mg/ml ascorbic acid and 1 μM pargyline. For screening, 25 μl of compound in 4% DMSO was added directly to each well and the plate is incubated for 5 minutes at 37° C.
To initiate the norepinephrine reuptake, 16 nM (final concentration) of ^3H norepinephrine (specific activity; 40-80 Ci/mmol) in assay buffer was delivered in 25 μl aliquots to each well, and the plates were incubated for 5 minutes at 37° C. The reaction was aspirated from the plate and the cells washed with 250 μl of 50 mM Tris Buffer (4° C.). The plates were left to dry for 1 hour. The cells were lysed using 0.25 M NaOH solution then placed on a shake table and vigorously shaken for 10 minutes. After cell lysis, 100 μl of Microscint 20 (PerkinElmer; #87-051101) were added to the plates and the plates were sealed with film tape and replaced on the shake table for a minimum of 10 minutes. The plates were counted in a TopCount counter (PerkinElmer).
For screening single point determinations, each compound plate contains at least 3 control wells (maximum NE reuptake determinant) and 3 non-specific wells determined by adding 20 μM of desipramine (minimum NE reuptake determinant). Determination of active compounds are calculated using a Microsoft Excel spread sheet applying the following formula:
% inhibition=[1−((mean cpm test compound wells−mean cpm non-specific wells)/(mean cpm control wells−mean cpm non-specific wells))]×100
For IC50 determination, raw cpm values were generated in a data file from the TopCount counter. The data was organized using Microsoft Excel and transferred into PRIZM graphing and statistical program, which calculates the estimated IC50 value. Calculation of IC50 values were made using non-linear regression analysis with a sigmoidal dose response with variable slope. The statistical program used wells containing ^3H norepinephrine only as the maximal NE reuptake determinant and wells containing ^3H norepinephrine plus 20 μM desipramine as the minimal NE reuptake determinant (non-specific determinant). Estimation of the IC50 value was completed on a log scale and the line was fit between the maximal and minimal NE reuptake values.
In general, inhibition refers to the percentage by which the read-out fell short of the control. Turning to `CNCC1Oc2ccccc2C1n1ccc2ccccc21` (racemic) [Example 11, (+/−)-1-[3-(1H-indol-1-yl)-2,3-dihydro-1-benzofuran-2-yl]-N-methyl methanamine hydrochloride], the inhibition at 6 µM was found to be 42%.

As for `CNC[C@@H]1Oc2ccccc2[C@H]1N1CC(C)(C)c2cccc(F)c21` [Example 5, 1-[(2S,3R)-3-(7-fluoro-3,3-dimethyl-2,3-dihydro-1H-indol-1-yl)-2,3-dihydro-1-benzofuran-2-yl]-N-methylmethanamine hydrochloride], the inhibition at 6 µM was found to be 63%.

On to `CC(C)NC[C@@H]1Oc2ccccc2[C@H]1N1CC(C)(C)c2cccc(F)c21` [Example 6, N-{[(2S,3R)-3-(7-fluoro-3,3-dimethyl-2,3-dihydro-1H-indol-1-yl)-2,3-dihydro-1-benzofuran-2-yl]methyl}propan-2-amine hydrochloride], for which the inhibition at 6 µM was 30%.

With `CN(C)C[C@@H]1Oc2ccccc2[C@H]1N1CC(C)(C)c2cccc(F)c21` [Example 7, 1-[(2S,3R)-3-(7-fluoro-3,3-dimethyl-2,3-dihydro-1H-indol-1-yl)-2,3-dihydro-1-benzofuran-2-yl]-N,N-dimethylmethanamine hydrochloride], the inhibition at 6 µM came out at 37%.

Regarding `CCNC[C@@H]1Oc2ccccc2[C@H]1N1CC(C)(C)c2cccc(F)c21` [Example 8, N-{[(2S,3R)-3-(7-fluoro-3,3-dimethyl-2,3-dihydro-1H-indol-1-yl)-2,3-dihydro-1-benzofuran-2-yl]methyl}ethanamine hydrochloride], the inhibition at 6 µM turned out to be 42%.

Regarding `CNCC1Oc2cc(F)ccc2C1N1C(=O)C(C)(C)c2ccccc21` (stereo not drawn) [Example 14, 1-{6-fluoro-2-[(methylamino)methyl]-2,3-dihydro-1-benzofuran-3-yl}-3,3-dimethyl-1,3-dihydro-2H-indol-2-one hydrochloride], the inhibition at 6 µM amounted to 54%.

The same assay, now with this note: MDCK-Net6 cells stably transfected with hNET; 3H norepinephrine uptake, 16 nM.
In general, IC50 refers to the midpoint of a concentration-inhibition curve. Low readings indicate greater potency, high ones weaker potency. In turn, `CNCC1Oc2ccccc2C1N1CCc2ccccc21` (racemic) [Example 10, (+/−)-1-[3-(2,3-dihydro-1H-indol-1-yl)-2,3-dihydro-1-benzofuran-2-yl]-N-methylmethanamine hydrochloride] yielded an IC50 of 244 nM.

Compound `CNCC1Oc2ccccc2C1n1ccc2ccccc21` (racemic) [Example 11, (+/−)-1-[3-(1H-indol-1-yl)-2,3-dihydro-1-benzofuran-2-yl]-N-methyl methanamine hydrochloride] yielded an IC50 of 301 nM.

Regarding `CNCC1Oc2cc(F)ccc2C1n1c(=O)n(C(C)C)c2cccc(F)c21` (racemic) [Example 18, 4-Fluoro-3-{(2SR,3RS)-6-fluoro-2-[(methylamino)methyl]-2,3-dihydro-1-benzofuran-3-yl}-1-isopropyl-1,3-dihydro-2H-benzimidazol-2-one hydrochloride], the midpoint of inhibition, the IC50, lay at 3800 nM.

As for `CNC[C@@H]1Oc2cc(F)ccc2[C@H]1n1c(=O)n(C(C)C)c2cccc(F)c21` (single isomer, unassigned) [Example 19, hydrochloride], the midpoint of inhibition, the IC50, lay at 12400 nM.

On to `CNC[C@H]1Oc2cc(F)ccc2[C@@H]1n1c(=O)n(C(C)C)c2cccc(F)c21` (single isomer, unassigned) [Example 20, hydrochloride], for which half-maximal inhibition (IC50) was put at 1750 nM.

For the compound `CNC[C@H]1Oc2ccccc2[C@@H]1N1CC(C)(C)c2cccc(F)c21` [Example 1, 1-[(2R,3S)-3-(7-fluoro-3,3-dimethyl-2,3-dihydro-1H-indol-1-yl)-2,3-dihydro-1-benzofuran-2-yl]-N-methylmethanamine hydrochloride], the IC50 is 27.2 nM.

`CNC[C@H]1Oc2ccccc2[C@@H]1N1CC(C)(C)c2cc(F)ccc21` [Example 2, 1-[(2R,3S)-3-(5-fluoro-3,3-dimethyl-2,3-dihydro-1H-indol-1-yl)-2,3-dihydro-1-benzofuran-2-yl]-N-methylmethanamine hydrochloride] displayed an IC50 of 343 nM.

`CN(C)C[C@H]1Oc2ccccc2[C@@H]1N1CC(C)(C)c2cccc(F)c21` [Example 3, 1-[(2R,3S)-3-(7-fluoro-3,3-dimethyl-2,3-dihydro-1H-indol-1-yl)-2,3-dihydro-1-benzofuran-2-yl]-N,N-dimethylmethanamine hydrochloride] displayed a concentration for half-maximal inhibition (IC50) of 319 nM.

The compound `CC1(C)CN([C@H]2c3ccccc3O[C@@H]2CN)c2c(F)cccc21` [Example 4, 1-[(2R,3S)-3-(7-fluoro-3,3-dimethyl-2,3-dihydro-1H-indol-1-yl)-2,3-dihydro-1-benzofuran-2-yl]methanamine hydrochloride] yielded an IC50 of 95 nM.

With `CCOc1ccccc1O[C@H]1c2ccccc2O[C@@H]1CNC` [Example 9, 1-[(2R,3S)-3-(2-ethoxyphenoxy)-2,3-dihydro-1-benzofuran-2-yl]-N-methylmethanamine hydrochloride], 846 nM corresponded to half-maximal inhibition (IC50).

For the compound `CNC[C@@H]1Oc2c(F)cccc2[C@H]1N1C(=O)C(C)(C)c2cccc(F)c21` [Example 12, 7-fluoro-1-{(2S,3R)-7-fluoro-2-[(methylamino)methyl]-2,3-dihydro-1-benzofuran-3-yl}-3,3-dimethyl-1,3-dihydro-2H-indol-2-one hydrochloride], 1030 nM corresponded to half-maximal inhibition (IC50).

`CNC[C@H]1Oc2ccc(F)cc2[C@@H]1N1CC(C)(C)c2cccc(F)c21` [Example 13, 1-[(2R,3S)-5-fluoro-3-(7-fluoro-3,3-dimethyl-2,3-dihydro-1H-indol-1-yl)-2,3-dihydro-1-benzofuran-2-yl]-N-methylmethanamine hydrochloride] came in with an IC50 of 88.5 nM.

`CNCC1Oc2ccccc2C1N1C(=O)C(C)(C)c2ccccc21` (stereo not drawn) [Example 15, 3,3-dimethyl-1-{2-[(methylamino)methyl]-2,3-dihydro-1-benzofuran-3-yl}-1,3-dihydro-2H-indol-2-one hydrochloride] came in with a 50% inhibitory concentration (IC50) of 1140 nM.

`CNCC1Oc2ccccc2C1N1CCCc2ccccc21` (stereo not drawn) [Example 16, 1-[3-(3,4-dihydroquinolin-1(2H)-yl)-2,3-dihydro-1-benzofuran-2-yl]-N-methylmethanamine hydrochloride] returned an IC50 of 811 nM.

Consider `CNCC1Oc2ccccc2C1N(C)c1ccccc1` (stereo not drawn) [Example 17, N-methyl-2-[(methylamino)methyl]-N-phenyl-2,3-dihydro-1-benzofuran-3-amine hydrochloride], for which the IC50 was 3550 nM.
